Laboratory results as given in patent publication US9023853B2, “Janus kinase 2 (JAK2) inhibitor for the treatment of lupus” (Cephalon, Inc., priority 2010, dated 2015).

Experiments:
Type in all cases: in vivo, mouse
[1] = test system: CCL3/MIP-1α; assay: Serum CCL3/MIP-1α in NZM mice
Procedure: (§1) For the processing of serum samples for cytokine analysis, frozen plasma at −80° C. was thawed on ice, vortexed, and centrifuged for 10 minutes to remove debris and aggregates. A total of 25-50 μL of serum was used for Luminex® assays following the manufacturer's instructions. Ten different mouse cytokines were measured using the mouse cytokine 10-plex bead kit (Invitrogen, Carlsbad, Calif., no. LMC0001). Briefly, filter plates (Millipore, Billerica, Mass., no. MAIPSWU10), were pre-wet with 200 μL of wash solution (kit component) and 25 μL of beads were added per well. […]
(§2) Age mated, female, NZM or NZW/LacJ, mice were matured for the study of lupus nephritis for a total of 7 months or 210 days at which time urine was collected for proteinuria detection. Mice with 0.5-1.0 mg/ml of urine protein as determined by an optical density-based total protein precipitation assay and cross-checked for 30-300 mg/dl of protein as determined by a stick assay were considered proteinuria positive and selected for study entry. […] End-stage lupus nephritis was evaluated by histopathology and scored by a board certified pathologist for the assessment of total renal damage in diseased animals using the scoring method described by Smith et al (Smith, Dong et al. 2007). […]

[2] = test system: CD38; assay: CD38 expression by flow cytometry in NZM mice
Procedure: Antibodies used for flow cytometry consisted of anti-mouse CD138-APC (eBioscience, San Diego, Calif.), anti-mouse CD19-FITC (eBioscience, San Diego, Calif.), anti-mouse CD38-PE (eBioscience, San Diego, Calif.) and anti-mouse CD45R/B220-Cyc (eBioscience, San Diego, Calif.), Rat IgG1-APC isotype control (eBioscience, San Diego, Calif.), Rat IgG2a-PE isotype control (eBioscience, San Diego, Calif.). All samples were analyzed using an Accuri C6 Flow Cytometer. Complete media was used for all experiments involving the ex vivo culture of splenocytes for all Elispot experiments. […]
as §2

[3] = test system: IL-12; assay: Serum IL-12 (Luminex) in MRL/lpr mice
Procedure: For the processing of serum samples for cytokine analysis, frozen plasma at -80° C. was thawed on ice, vortexed, and centrifuged for 10 minutes to remove debris and aggregates. A total of 25-50 μL of serum was used for Luminex® assays following the manufacturer's instructions. Ten different mouse cytokines were measured using the mouse cytokine 10-plex bead kit (Invitrogen, Carlsbad, Calif., no. LMC0001). Briefly, filter plates (Millipore, Billerica, Mass., no. […]10), were pre-wet with 200 μL of wash solution (kit component) and 25 μL of beads were added per well. Serum samples were diluted and a total volume of 50 μL was added per well (ie, 25 μL of sample serum plus 25 μL of assay diluent as provided by the manufacturer). Plates with beads were incubated for 2 hours at room temperature (RT) on an orbital shaker in the dark. At the end of the incubation, plate(s) were washed twice in kit buffer, secondary biotinylated antibody was added at a 1:10 dilution (100 μL) in biotin diluent provided with the kit. Plates were incubated at RT for 1 hour in the dark then washed twice in kit buffer. Strepavidin in assay diluent was added at 100 μL per well, then incubated for 30 minutes at RT in the dark. The plates were washed 3 times then 100 μL of kit wash solution was added and agitated for 2-3 minutes at RT in the dark. […]

[4] = test system: IL-13; assay: Serum IL-13 in NZM mice
Procedure: as §1, §2

CN1CCN(c2cccc(Nc3nc4c(-c5ccc(S(C)(=O)=O)cc5)cccn4n3)c2)CC1 [COMPOUND A, [8-(4-methanesulfonyl-phenyl)-[1,2,4]triazolo[1,5-a]pyridin-2-yl]-[3-(4-methyl-piperazin-1-yl)-phenyl]-amine]
serum CCL3/MIP-1α decrease compared to vehicle ([1]; 55 mg/kg): 94.5%
serum CCL3/MIP-1α decrease compared to vehicle ([1]; 100 mg/kg): 94.5%
decrease in expression of CD38 ([2]; COMPOUND A 55 mg/kg): 66.6%
decrease in expression of CD38 ([2]; COMPOUND A 100 mg/kg): 74.2%
serum IL-12 decrease compared to vehicle ([3]; 55 mg/kg p.o. b.i.d.): 50.7%
serum IL-12 decrease compared to vehicle ([3]; 100 mg/kg p.o. b.i.d.): 56.1%
serum IL-13 decrease compared to vehicle ([4]; 55 mg/kg): 86.2%
serum IL-13 decrease compared to vehicle ([4]; 100 mg/kg): 79.5%
